The text below walks through data of patent publication US20240279217A1, “Heterocyclic compounds for the treatment of tuberculosis” (TECNIMEDE - SOCIEDADE TÉCNICO-MEDICINAL, SA, priority 2021, published 2024).

Series [1] is described as follows: Human plasma protein binding (PPB) assay, equilibrium dialysis. The following applies: non-diluted plasma, pH 7.4, percentage of plasma protein bounded compound, 5 hours dialysis, read-out: hPPB. Type of series: in vitro ADME. The procedure: In an embodiment, human plasma protein binding (PPB) assay was carried out. The assay was performed in a multiple-use 96-well dialysis unit (HTD96b dialyzer). Each individual well unit consisted of 2 chambers separated by a vertically aligned dialysis membrane of predetermined pore size (MWCO 12-14 kDa). 120 μl of non-diluted plasma spiked with the compound (1 μM, 1% final DMSO concentration) was added to one chamber and the same volume of phosphate buffer saline pH 7.4 to the other chamber. HTD96b dialyzer was covered with adhesive sealing film and incubated at 37° C. and 100 rpm orbital shaking for 5 hours. Verapamil was also evaluated in parallel as reference compound. For sample preparation, an aliquot of the content of each chamber was mixed with the same volume of the blank opposite matrix. […] Supernatants were analysed using a Shimadzu VP HPLC system with a reverse phase column, coupled with a tandem mass spectrometer API 3000 (PE Sciex). […]
The percentage of plasma protein bounded compound and its recovery were calculated using the equations below: […]
The percentage of plasma protein bounded compound and its recovery were calculated using the values obtained for each compound in the quantification of the 3 samples (in buffer, plasma and standard solution).
A general note: In equilibrium dialysis free small molecules cross a membrane that holds back macromolecules.

The nature of series [2]: Distribution coefficient (Log D) determination, octanol/PBS pH 7.4. Type of series: physicochemical. The following applies: octanol / phosphate buffer saline pH 7.4. The procedure:
In an embodiment, distribution coefficient (Log D) determination assay was carried out. Test compounds were incubated in Eppendorf-type polypropylene microtubes in triplicates: a 5 μL aliquot of a 10 mM DMSO stock of each test compound were added into the previously mutually saturated mixture containing 500 μL of phosphate buffer saline (pH 7.4) and 500 μL of octanol. The solution was allowed to mix in a rotator for 1 hour at 30 rpm. Phase separation was assured by centrifugation. The octanol phase was diluted 100-fold with 40% acetonitrile in water for analysis, and aqueous phase was analysed without dilution. Mebendazole was used as a reference compound. All samples (both phases) were analysed in a Shimadzu VP HPLC system with a reverse phase column, coupled with tandem mass spectrometer API 3000 (PE Sciex). The TurbolonSpray ion source was used in positive ion mode. Acquisition and analysis of the data were performed using Analyst 1.5.2 software. Distribution coefficients of the tested compounds were calculated as the logarithm of the partition ratios (D) in both solvents, according to the equation below.
[formula] • where: So—peak area of the compound in octanol phase • Sp—peak area of the compound in phosphate buffer saline phase

Series [3] is described as follows: Metabolic stability assay in liver microsomes. In kind it is in vitro ADME. The conditions noted are these: human, pH 7.4, 37° C., 60 minutes. How it is done:
In an embodiment, metabolic stability assay was carried out. Metabolic stability was assessed by incubating test compounds in 96-well plates in 5 aliquots of 40 μL each (one for each time point) in liver microsomal incubation medium. This medium contained MgCl2 (3.3 mM), NADPH-cofactor system (NADPH (3 mM), glucose-6-phosphate (5.3 mM), glucose-6-phosphate dehydrogenase (0.67 units/ml)) and 0.42 mg of liver microsomal protein per ml in phosphate buffer (100 mM, pH 7.4). Control incubations were performed replacing the NADPH-cofactor system by phosphate buffer. Test compounds (1 μM, final solvent concentration 1.6%) were incubated with microsomes at 37° C. and 100 rpm orbital shaking.
Imipramine and Propranolol were incubated in parallel as reference compounds. Each reaction was performed in duplicate. Five time points over a duration 60 minutes were analysed. The reactions were stopped by adding 12 volumes of 90% acetonitrile in water to incubation aliquots, followed by protein sedimentation by centrifugation. Supernatants were analysed using a Shimadzu VP HPLC system with a reverse phase HPLC column, coupled with tandem mass spectrometer API 3000 (PE Sciex). […] The elimination constant (kel), half-life (t1/2) and intrinsic clearance (Clint) were determined in plot of In(AUC) versus time, using linear regression analysis for each test and reference compound.

Series [4] can be described thus: pKa determination by potentiometric titration. Type of series: physicochemical. The following applies: acidified MeOH-water (1:4) solution of NaCl, 25° C. How it is done:
In an embodiment, pKa determination assay was carried out. The tendency of a compound to donate a proton is measured as its acid ionization constant (dissociation constant), or Ka. A more practical scale of representing acidity is pKa which is the negative logarithm of the Ka (pKa=−log Ka). The pKa determinations of the test compounds and 3 reference compounds were assessed by potentiometric titration, in accordance with the technical protocols for pKa measurement provided by Pion Inc. and Sirius Analytical Inc. Briefly, compounds pKa were determined by pH-metric method based on potentiometric acid-base titration at 25° C. The test and reference compounds were dissolved in acidified MeOH-water (1:4) solution of NaCl (150 mM, pH 2) and slowly titrated with 10 mM NaOH MeOH-water (1:4) solution. The recorded pH of the solution as a function of NaOH volume used during the titration were used to construct the titration curve. Titration of acidified NaCl solution in absence of any compound was used for blank plotting. Buffering capacity was calculated in each point of titration curve as the ratio of the NaOH flow (constant) to the pH rise velocity. The pKa value is determined from resulting plot of buffering capacity versus pH as the maximum of buffering capacity. pH-Metric method allows to measure pKa's in range between 2 and 12. […]

The nature of series [5]: Stability in human plasma (PS) assay. The conditions noted are these: 37° C., 120 minutes, read-out: t1/2 (min) hPS. In kind it is in vitro ADME. How it is done:
In an embodiment, stability in human plasma (PS) assay was carried out. Test compounds (1 μM, final DMSO concentration 1%) were incubated in 5 aliquots of 70 μL each (one for each time point), in duplicates, at 37° C. with 100 rpm orbital shaking. Five time points over a duration 120 minutes have been analysed. Two reference compounds were analysed in parallel. The reactions were stopped by the addition of 420 μL of acetonitrile-water mixture (90:10) and subsequent plasma proteins sedimentation were achieved by centrifugation. Supernatants were analysed in a Shimadzu VP HPLC system with a reverse phase column, coupled with a tandem mass spectrometer API 3000 (PE Sciex). Both the positive and negative ion modes of the TurbolonSpray ion source were used. Acquisition and analysis of the data were performed using Analyst 1.5.2 software (PE Sciex). The percentage of the test compounds remaining after incubation in plasma and their half-lives (T1/2) were calculated.

Usually logD stands for lipophilicity at a set pH, counting ionised and neutral species. Low readings indicate lower lipophilicity, high ones higher lipophilicity. Broadly, the microsomal CLint is the rate of metabolic loss divided by the concentration. Read a high microsomal CLint as faster metabolism. In general, pKa refers to the negative logarithm of the acid dissociation constant. As to `COc1cccc2ccc(N3CCC(c4nc(-c5ccc(OC(F)(F)F)cc5)no4)CC3)nc12` [Compound 3, 5-(1-(8-methoxyquinolin-2-yl)piperidin-4-yl)-3-(4-(trifluoromethoxy)phenyl)-1,2,4-oxadiazole], the fraction unbound at 5 h, 1 μM in series [1] was at most 0.001. This compound came in with a logD in series [2] of 5.34. In series [3], this compound displayed a half-life at 1 μM of 3.03 h and a microsomal CLint at 1 μM of 9.2 µL/min/mg. In addition, in series [4], the pKa is 3.9. The half-life at 1 μM in series [5] was over 240 min.
